Results published in patent publication US20070248702A1, “Use of CB2 receptors agonists for the treatment of Huntington's disease” (priority 2004, published 2007).

Columns and labels:
[1] = test system: rats with unilateral injections of malonate; assay: GABA contents in basal ganglia by HPLC, malonate rat model of Huntington's disease; format: in vivo; settings: for GABA contents Globus pallidus / GABA contents Substantia nigra: % of lesioned side over non-lesioned side, mean ± SEM, i.p. 30 min before and 2 h after malonate (ACEA 3 mg/kg, HU-308 5 mg/kg, CBD 5 mg/kg), 48 h; for malonate-induced GABA loss in the striatum (caudate-putamen): FIG. 1, result in words, HU-308 5 mg/kg; for malonate-induced GABA loss in the striatum (caudate-putamen) / neurochemical deficits induced by malonate in the caudate-putamen and other basal ganglia structures: CBD 5 mg/kg i.p.; for neurochemical deficits induced by malonate in the caudate-putamen and other basal ganglia structures: Table 1 and FIG. 1, result in words, ACEA 3 mg/kg
Description: (§1) Animals. Male Sprague-Dawley rats were housed in a room with controlled photoperiod (08:00-20:00 light) and temperature (23±1° C.). […] Each treatment group consisted of at least six animals.
(§2) Intrastriatal injection of malonate. Rats were injected stereotaxically (coordinates: +0.8 mm anterior, 2.9 mm lateral from the bregma, 4.5 mm ventral from the dura mater) into the left striatum with 2 M malonate in a volume of 1 μl and used for experimental analysis 48 h later.
(§3) Cannabinoid treatment. […] All compounds were prepared in Tween 80-saline solution (1:16 volume per volume). The volume dosage for i.p. administration was 2 ml/kg body weight. The doses used for each experiment were selected from the previous studies on the pharmacological properties of these compounds.
(§4) Animals were killed 46 hours after the second cannabinoid injection and their brains were rapidly removed and frozen in 2-methylbutane cooled in dry ice, and stored until evaluation of the degree of malonate-induced striatal injury.
(§5) Sample preparation. Brains coronal slices (around 500 μm thick) were made at levels containing the substantia nigra, the globus pallidus and the caudate-putamen, according to Palkovits M. and Brownstein J. (Maps and Guide to Microdissection of the Rat Brain. Elsevier, 1988). Subsequently, the three structures were dissected and homogenized in 20-40 volumes of cold 150 mM potassium phosphate buffer, pH 6.8. Each homogenate was distributed for the analysis of the contents of GABA or dopainine and its major metabolite, 3,4-dihydroxyphenylacetic acid (DOPAC), by High Performance Liquid Chromatography (HPLC) coupled to electrochemical detection, according to previously described methods (Romero J. et al., Brain Res. 694: 223-32, 1995; González S. et al., Life Sci. 65: 327-36, 1999). An aliquot of each homogenate was used to analyze protein concentration (Lowry O. H. et al., J. Biol. Chem. 193: 265-75, 1951).
Analysis of GABA contents. This analysis was carried out by HPLC with electrochemical detection according to the procedure described by Smith S, and Sharp T. (J. Chromat. 652: 228-33, 1994). The aliquot of the homogenate used for the direct measurement of GABA content was diluted 1:2 with 0.4 N perchloric acid containing 0.4 mM sodium disulfite, 0.90 mM EDTA and 10 μg/ml β-aminobutyrate (BABA) as an internal standard. Following, samples were centrifuged for 3 min (15,000 g) and 50 μl of each supernatant removed and neutralized with 100 μl of 0.1 N NaOH. Samples were stored at 4° C. until analysis. This was performed by derivatization of GABA and BABA (β-aminobutyrate) through the addition of 15 μl of o-phthaldehyde (OPA)-sulfite solution (14.9 mM OPA, 45.4 mM sodium sulfite and 4.5% ethanol in 327 mM borate buffer, pH 10.4). Samples were allowed to react at room temperature for a period of 10 min. After this time, 20 μl of each reaction mixture (including derivatizated calibration standards composed of known concentrations of GABA and BABA) were injected into the HPLC system. The HPLC system consisted of the following elements. The pump was an isocratic Spectra-Physics 8810. The column was a RP-18 (Spherisorb ODS-2; 150 mm, 4.6 mm, 5 μm particle size; Waters, Mass., USA). The mobile phase, previously filtered and degassed, consisted of 0.06 M sodium dihydrogen phosphate, 0.06 mM EDTA and 20-30% methanol (pH 4.4) and the flow rate was 0.8 ml/min. The effluent was monitored with a Metrohm bioanalytical system amperometric detector using a glassy carbon electrode. The potential was 0.85V relative to an Ag/AgCl reference electrode with a sensitivity of 50 nA (approx. 2 ng per sample). The signal was recorded on a Spectra-Physics 4290 integrator. The approximate retention times for GABA and BABA were 8 and 16 min, respectively. […] Values were expressed as μg/mg of protein.

[2] = test system: rats with unilateral injections of malonate; assay: dopamine and DOPAC contents in caudate-putamen by HPLC, malonate rat model; format: in vivo; settings: % of lesioned side over non-lesioned side, mean ± SEM; i.p. 30 min before and 2 h after malonate (ACEA 3 mg/kg, HU-308 5 mg/kg, CBD 5 mg/kg); 48 h
Description: as §1, §2, §3, §4, §5

[3] = test system: rats with unilateral injections of malonate; assay: in situ hybridization of neuronal-specific enolase mRNA, malonate rat model; format: in vivo; settings: FIG. 2, result in words; HU-308 5 mg/kg, CBD 5 mg/kg i.p.
Description: Animals were killed 46 hours after the second cannabinoid injection and their brains were rapidly removed and frozen in 2-methylbutane cooled in dry ice, and stored until evaluation of the degree of malonate-induced striatal injury. The protocol and results concerning the neurochemical evaluation of the neuronal injury and the effect of the various types of cannabinoids are reported in Example 2. The protocol and results concerning the effect of the various types of cannabinoids on the mRNA levels of neuron specific enolase are reported in Example 3.
(§6) Brain slicing. Coronal sections, 40 μm-thick, were cut in a cryostat, according to the Paxinos G. and Watson C. atlas (Rat brain in stereotaxic coordinates. Academic Press, London, 1986). Sections were thaw-mounted onto Superfrost Plus glass slides and dried briefly at 30° C. and stored at −80° C. until used.
(§7) Analysis of mRNA levels of NSE. Briefly, sections were fixed in 4% paraformaldehyde for 5 min and, after rinsing twice in PBS, were acetylated by incubation in 0.25% acetic anhydride, prepared in 0.1 M triethanolamine/0.15 M sodium chloride (pH 8.0), for 10 min. […]
(§8) The oligonucleotide probe was labeled at the 3′-end with [^35S]-dATP using terminal deoxynucleotidyl-transferase. […] The intensity of the hybridization signal was assessed by measuring the grey levels in the films with a computer-assisted video densitometer. […]

[4] = test system: rats with unilateral injections of malonate; assay: in situ hybridization of SOD-1 and SOD-2 mRNA, malonate rat model; format: in vivo; settings: result in words, HU-308 5 mg/kg i.p.
Description: The protocol and results concerning possible sites of action are reported in Example 6.
as §6
as §7, with “min. Sections were rinsed in 0.3 M sodium chloride/0.03 M sodium citrate, pH 7.0, dehydrated and delipidated by ethanol/chloroform series. For hybridization, the following synthetic probe of 45 nucleotides was used.” for “min.”
as §8
Superoxide dismutase-1 and -2 (SOD-1 and SOD-2) were used as markers of endogenous antioxidant defenses. Their relative levels in lesioned vs. non-lesioned areas of malonate injected rats were measured by in situ hybridization. […]

human CB1 receptors = human CB1 receptors (Homo sapiens, UniProt P21554); settings: read-out: IC50 human CB1 receptors; as disclosed in WO 03/064359; cited from earlier work
Sequence of human CB1 receptors (P21554 whole entry): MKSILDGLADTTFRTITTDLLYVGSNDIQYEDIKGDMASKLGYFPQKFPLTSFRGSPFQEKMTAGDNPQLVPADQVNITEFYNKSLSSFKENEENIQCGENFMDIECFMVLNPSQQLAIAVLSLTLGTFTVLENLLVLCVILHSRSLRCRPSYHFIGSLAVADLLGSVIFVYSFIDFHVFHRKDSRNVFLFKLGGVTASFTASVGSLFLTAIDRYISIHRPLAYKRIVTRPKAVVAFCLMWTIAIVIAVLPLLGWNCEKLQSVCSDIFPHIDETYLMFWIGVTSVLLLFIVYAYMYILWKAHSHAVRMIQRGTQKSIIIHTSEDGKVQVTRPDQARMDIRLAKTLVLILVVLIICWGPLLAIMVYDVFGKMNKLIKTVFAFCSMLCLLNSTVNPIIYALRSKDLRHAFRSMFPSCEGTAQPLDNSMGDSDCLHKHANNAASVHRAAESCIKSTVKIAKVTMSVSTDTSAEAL

[5] = test system: mice treated with the neurotoxin MPTP; settings: WO 03/064359; cited from earlier work
[6] = test system: rats with unilateral lesions of the caudate-putamen generated by local application of malonate; settings: Lastres-Becker et al., Neuroreport 14: 813-6, 2003; effects not dose-dependent; cited from earlier work
[7] = test system: rats systemically exposed to 3-nitropropionic acid; settings: Lastres-Becker et al., Neuroreport 15: 2375-9, 2004; cited from earlier work

Row | Compound | GABA contents Globus pallidus [1] | GABA contents Substantia nigra [1] | malonate-induced GABA loss in the striatum (caudate-putamen) [1] | neurochemical deficits induced by malonate in the caudate-putamen and other basal ganglia structures [1] | DA contents Caudate-putamen [2] | mRNA levels for neuronal-specific enolase in the caudate-putamen [3] | DOPAC contents Caudate-putamen [2] | effect on malonate toxicity [6] | further results
1 | C=C(C)[C@@H]1CCC(C)=C[C@H]1c1c(O)cc(CCCCC)cc1O [CBD, cannabidiol] | 54.4 ± 8.2 % | 86.3 ± 8.6% | slightly reduce the GABA depletion | lack of neuroprotectant effects | 12.6 ± 4.9 % | totally inactive | – | – | –
2 | CCCCCCC(C)(C)c1cc(OC)c(C2C=C(CO)C3CC2C3(C)C)c(OC)c1 (single isomer, unassigned; (+)) [HU-308, (+){4-[4-(1,1-dimethylheptyl)-2,6-dimethoxyphenyl]-6,6-dimethyl-bicyclo[3.1.1]hept-2-en-2-yl}-methanol] | 90.1 ± 13.4 % | 93.8 ± 7.7% | reduced malonate-induced GABA loss | – | 34.1 ± 5.2 % | partially prevented the malonate-induced reduction | 53.9 ± 5.7 % | – | GABA contents in the lesioned side ([1]; striatum, lesioned side, malonate + HU-308 5 mg/kg i.p.): 1.12±0.08 μg/mg of protein; GABA contents in the non-lesioned side ([1]; striatum, non-lesioned side, malonate + HU-308 5 mg/kg i.p.): 1.96±0.11 μg/mg of protein; mRNA levels for SOD-1 in the caudate-putamen ([4]; FIG. 5A): unable to prevent the malonate-induced decrease; mRNA levels for SOD-2 in the caudate-putamen ([4]; FIG. 5B): unable to prevent the malonate-induced decrease; IC50 (human CB1 receptors): 3.6 µM; cell death in the substantia nigra [5]: reduces the extent of cell death in the substantia nigra
3 | SR144528 | – | – | – | – | – | – | – | – | effect of co-administration on the HU-308 reduction of malonate-induced GABA depletion in the caudate-putamen ([1]; FIG. 3, SR144528 1 mg/kg i.p. with HU-308 5 mg/kg i.p.): completely reversed
4 | CCCCCc1cc(O)c2c(c1)OC(C)(C)[C@@H]1CCC(C)=C[C@@H]21 [Δ^9-THC, Δ^9-tetrahydrocannabinol] | – | – | – | – | – | – | – | pro-toxic | neuroprotection in 3-nitropropionic acid rats [7]: neuroprotectant
5 | Cc1c(C(=O)NN2CCCCC2)nn(-c2ccc(Cl)cc2Cl)c1-c1ccc(Cl)cc1 [SR141716] | – | – | – | – | – | – | – | enhanced malonate toxicity | –
6 | CCCCC/C=C\C/C=C\C/C=C\C/C=C\CCCC(=O)NCCCl [ACEA, arachidonyl-2-chloroethylamide] | 61.1 ± 12.2 % | 92.1 ± 5.2% | – | did not influence neurochemical deficits | 23.8 ± 5.4 % | – | 44.9 ± 9.7 % | – | –
